The source of these data is article PMC10180113, “Thermodynamic and Kinetic Stabilities of Al(III) Complexes with N2O3 Pentadentate Ligands” (Molecules, 2023).

For data set [1] the following is noted: cited from earlier work.
For data set [2] the following is noted: 0.1 M KNO3, 25 °C, cited from earlier work; for logKAlL: stability constant of Al(III) complex.
Details of data set [3]: method as in doi:10.1007/s11144-015-0892-6. The settings on record: 1.0 M NaCl, cited from earlier work.
Data set [4] is described as follows: Protonation constants of the ligands (pH-potentiometry, spectrophotometry). The settings on record: 0.15 M NaNO3, 25 °C; for logK1^H / logK2^H / logK3^H / logK4^H: pH-potentiometry; for ΣlogK1–4^H: total basicity. It counts as physicochemical. As to the method: Since the thermodynamic properties of any metal complex proposed for in vivo applications must be characterized by high thermodynamic stability, the equilibrium properties of AMPTA, AMPDA-HB, and CD3A-Bn ligands and their Al(III) complexes were investigated in detail. First, the protonation constants of the ligands, defined by Equation (1), were determined by pH-potentiometry and the logKi^H values are listed in Table 1. (1) KiH=HiL/Hi−1LH^+
The protonation constants of the AMPTA, AMPDA-HB, and CD3A-Bn and those of the Al(III) complexes were determined by pH-potentiometric titration. The metal-to-ligand concentration ratio was 1:1 (the concentration of the ligand was generally 0.002 M). For the pH measurements and titrations, a Metrohm 888 Titrando automatic titration workstation with a Metrohm-6.0234.110 combined electrode was used. Equilibrium measurements were carried out at a constant ionic strength (0.15 M NaNO3) in 6 mL samples at 25 °C under magnetic stirring and N2 bubbling. The titrations were made in the pH range 1.7–12.0. KH-phthalate (pH = 4.005) and borax (pH = 9.177) buffers were used to calibrate the pH meter. For the calculation of [H^+] from the measured pH values, the method proposed by Irving et al. was used. A 0.01 M HNO3 solution was titrated with the standardized NaOH solution in the presence of 0.15 M NaNO3 ionic strength. The differences (A) between the measured (pHread) and calculated pH (−log[H^+]) values were used to obtain the equilibrium H^+ concentration from the pH values measured in the titration experiments (A = −0.035). The waiting time between two pH measurements was 60 s. For the equilibrium calculations, the stoichiometric water ionic product (pKw) was also needed to calculate [OH^−] values under basic conditions. The VNaOH-pHread data pairs of the HNO3NaOH titration obtained in the pH range 10.5–12.0 were used to calculate the pKw value (pKw = 13.78). The protonation and stability constants were calculated with the PSEQUAD program.

Data set [5] in a line: Stability and protonation constants of the Al(III) complexes (pH-potentiometry, 27Al NMR). The settings on record: 0.15 M NaNO3, 25 °C; for logβAlLH−1: cumulative stability constant of AlLH−1; for logKAlLH−1: protonation constant of AlLH−1 species, pH-potentiometry; for logKAlL: stability constant of Al(III) complex, 27Al NMR spectroscopy. It counts as physicochemical. The protocol:
The stability and protonation constants of the Al(III) complexes of AMPTA, AMPDA-HB, and CD3A-Bn, defined by Equations (2)–(4), were investigated by pH-potentiometry and by multinuclear NMR spectroscopy at 25 °C in 0.15 M NaNO3 solution. (2) KAlL=AlL/Al^3+L (3) KAlLH−1=AlL/AlLH−1H^+ (4) Al^3++L+OH^− ⇌AlLH−1 βAlLH−1=AlLH−1/Al^3+LOH^−
In order to avoid the hydrolysis of the Al(III) ion, the pH-potentiometric titration of the pre-prepared complexes of AMPTA, AMPDA-HB, and CD3A-Bn ligands was performed at pH > 4.0.
To determine the stability constant of the Al(III) complexes, the ^1H and ^27Al NMR spectra of the Al^3+-AMPTA, Al^3+-AMPDA-HB, and Al^3+-CD3A-Bn systems were recorded in the pH range 8.0–12. ^1H and ^27Al NMR spectra of the three systems are shown in Figures S1–S6.
The analysis of the ^27Al NMR data was used for the calculation of the stability constants of the [Al(AMPTA)], [Al(AMPDA-HB)], and [Al(CD3A-Bn)] complexes. Integrals of the ^27Al NMR signal ([Al(OH)4]^− at 81 ppm, ν½ = 11 Hz; see Figures S2, S4 and S6) were used for the calculation of the logKAlL value of the three Al complexes by taking into account the protonation constant of the AlLH−1 species (Equation (3), Table 1) and the known hydrolysis constants of the free Al^3+ ion (logK[Al(OH)]^2+ = −4.60, logK[Al(OH)2]^+ = −9.09, logK[Al(OH)3] = −14.94 and logK[Al(OH)4]^− = −23.08, logK[Al2(OH)2]^4+ = −8.0, logK[Al3(OH)4]^5+ = −13.47, logK[Al13(OH)32]^7+ = −104.81). […] The equilibrium data obtained by pH-potentiometry and multinuclear NMR spectroscopy were used to calculate the species distribution diagram for the Al(III)-AMPTA, Al(III)AMPDA-HB, and Al(III)-CD3A-Bn systems (Figure 1, Figure 2 and Figure 3). The amount of [Al(OH)4]^− species determined by ^27Al NMR studies (Figures S2, S4 and S6) is also shown in Figure 2, Figure 3 and Figure 4.
The protonation constants of the AMPTA, AMPDA-HB, and CD3A-Bn and those of the Al(III) complexes were determined by pH-potentiometric titration. The metal-to-ligand concentration ratio was 1:1 (the concentration of the ligand was generally 0.002 M). For the pH measurements and titrations, a Metrohm 888 Titrando automatic titration workstation with a Metrohm-6.0234.110 combined electrode was used. Equilibrium measurements were carried out at a constant ionic strength (0.15 M NaNO3) in 6 mL samples at 25 °C under magnetic stirring and N2 bubbling. The titrations were made in the pH range 1.7–12.0. KH-phthalate (pH = 4.005) and borax (pH = 9.177) buffers were used to calibrate the pH meter. For the calculation of [H^+] from the measured pH values, the method proposed by Irving et al. was used. A 0.01 M HNO3 solution was titrated with the standardized NaOH solution in the presence of 0.15 M NaNO3 ionic strength.

Details of data set [6]: method as in doi:10.1021/ac60305a041, doi:10.1021/ja00792a018. The settings on record: 0.5 M Me4NCl, 25 °C; cited from earlier work.
A short description of data set [7]: Protonation constants of the ligands (pH-potentiometry, spectrophotometry). Format: physicochemical. The conditions noted are these: 0.15 M NaNO3, 25 °C.
Details of data set [8]: method as in PMID 31830368. The settings on record: up to 4 h in PBS, serum, and EDTA solutions; cited from earlier work.
On the set-up of data set [9]: method as in PMID 31830368. The settings on record: cited from earlier work.

Read-outs that look alike come from different tables or passages of the source. Marks after values point to notes of the source that are not given here.

Take `O=C(O)CN(CCN(CC(=O)O)CC(=O)O)CC(=O)O` [EDTA]: in data set [1] (0.15 M NaNO3, 25 °C), the “logK1^H” value was 9.40, the “logK2^H” value is 6.10, the “logK3^H” value is reported as 2.72 and the “logK4^H” value is 2.08. Moreover, in data set [1] (0.15 M NaNO3, 25 °C), the “logK5^H” value is given as 1.23 and the “ΣlogK1–4^H” value is listed as 20.30. In data set [2], the “logKAlLH−1” value was 6.0 ^e, the “logβAlLH−1” value was 10.5 ^e and the logKAlL is reported as 16.5 ^e.

For `O=C(O)CN(CC(=O)O)[C@@H]1CCCC[C@H]1N(CC(=O)O)CC(=O)O` (relative stereo) [CDTA, trans-1,2-diaminocyclohexane-N,N,N′,N′-tetraacetic acid], in [1] (0.15 M NaNO3, 25 °C), the “logK1^H” value is 9.54, the “logK2^H” value is given as 6.08, the “logK3^H” value is 3.65 and the “logK4^H” value is 2.69. In [1] (0.15 M NaNO3, 25 °C), the “logK5^H” value was 1.14 and the “ΣlogK1–4^H” value was 21.96. In addition, in data set [2], the “logKAlLH−1” value is recorded as 7.70 ^e, the “logβAlLH−1” value is given as 11.2 ^e and the logKAlL is given as 18.9 ^e.

Regarding `O=C([O-])CN1CCN(CC(=O)[O-])CCN(CC(=O)[O-])CC1.[Al+3]` [[Al(NOTA)]], in [3] (25 °C), the “KAl(L)H−2 (KAl(NOTA)H−1 for [Al(NOTA)])” value is 1.6 × 10^12 c M^−1, the k0 was 2e-06 s⁻¹, the “k1 (kOH for [Al(NOTA)])” value is reported as 6.8 × 10^−6 b M^−1 s^−1 and the “logKAl(L)H−2” value was 12.2. In data set [3] (pH 7.4, 25 °C), the “kd (pH = 7.4)” value was 2 × 10^−6 s^−1 and the “t1/2 (pH = 7.4), dissociation half-life (ln2/kd)” value is listed as 94 h.

As to `O=C(O)CN(CC(=O)O)[C@@H]1CCCC[C@H]1N(CC(=O)O)Cc1ccccc1` [CD3A-Bn, trans-1,2-diaminocyclohexane-N-benzyl-N,N′,N′-triacetic acid], in data set [4], the “logK1^H” value is 10.72 (2), the “logK2^H” value is 5.22 (3), the “logK3^H” value is given as 3.34 (3) and the “logK4^H” value was 0.59 (9). Besides, the “ΣlogK1–4^H” value in data set [4] was 19.87. For the same molecule, in data set [5], the “logβAlLH−1” value is given as 9.3 (1), the “logKAlLH−1” value is listed as 5.20 (4) and the logKAlL is reported as 14.5 (1) ^d.

On to `Oc1ccccc1` [phenol], for which the “logK^H” value in data set [1] (0.1 M NaClO4) was 10.0.

For `O=C([O-])CN(CCN(CC(=O)O)CC(=O)O)CC(=O)O.[Na+]` [[Na(EDTA)]^3−], in data set [6], the logKNaL is recorded as 1.43.

`O=C(O)CN(CC(=O)O)CC1CCCCN1CC(=O)O` (stereo not shown) [AMPTA]: in data set [4], the “logK1^H” value is 11.49 (1), the “logK2^H” value is 5.56 (4), the “logK3^H” value was 2.75 (5) and the “logK4^H” value is listed as 1.73 (5). Besides, in [4], the “ΣlogK1–4^H” value is given as 21.53. Besides, in data set [5], the “logβAlLH−1” value was 9.8 (1), the “logKAlLH−1” value is recorded as 5.06 (6) and the logKAlL was 14.9 (1) ^d. For the same molecule, in data set [1] (0.15 M NaCl, 25 °C), the “logK1^H” value was 11.67, the “logK2^H” value is 5.47, the “logK3^H” value is 2.74 and the “logK4^H” value was 1.62. In addition, the “ΣlogK1–4^H” value in data set [1] (0.15 M NaCl, 25 °C) was 21.50.

Turning to `O=C(O)CN(Cc1ccccc1O)CC1CCCCN1CC(=O)O` (stereo not shown) [AMPDA-HB], in data set [4], the “logK3^H” value is on record as 4.94 (5), the “logK4^H” value was 2.01 (5) and the “ΣlogK1–4^H” value turned out to be 28.87. In [5], the “logβAlLH−1” value is 11.7 (1), the “logKAlLH−1” value is given as 6.94 (6) and the logKAlL is on record as 18.6 (1) ^d. In data set [1] (0.15 M NaCl, 25 °C), the “logK1^H” value is given as 12.4, the “logK2^H” value is given as 10.14, the “logK3^H” value is given as 4.76 and the “logK4^H” value is 1.91. Moreover, in data set [1] (0.15 M NaCl, 25 °C), the “ΣlogK1–4^H” value is 29.21. Moreover, in data set [7], the “logK1^H” value is listed as 12.0 (1) ^b and the “logK2^H” value is on record as 9.92 (5) ^b. In addition, in data set [8], the “stability in vitro of the [Al18F]-labelled complex” value was “high stability”. Further, the “excretion of the [Al18F]-labelled complex in vivo” value in data set [9] was “rapid hepatobiliary and renal excretion”. For the same molecule, the “accumulation in the bones of the [Al18F]-labelled complex” value in data set [9] (in vivo) is “low accumulation in the bones”.

As to `O=C([O-])CN(CC(=O)O)C1CCCCC1N(CC(=O)O)CC(=O)O.[Na+]` (stereo not shown) [[Na(CDTA)]^3−], the logKNaL in [6] is 4.66.
